Results: US20250170112A1, “ADENOSINE LIGANDS FOR THE TREATMENT OF NEUROLOGICAL DISORDERS” (Lucy Therapeutics, Inc., priority 2022, published 2025)

Tests used:
human A2B = biological target: T1, human A2B (Homo sapiens, UniProt P29275); assay: cAMP HTRF assay for Gs coupled receptor, agonist test; format: cell-based; conditions: agonist activity; HEK293 cells expressing recombinant human A2B; read-out: A2BAR EC50
T1 construct: expressed in transfected cells; host or cells: HEK293
T1 sequence (P29275 1-332): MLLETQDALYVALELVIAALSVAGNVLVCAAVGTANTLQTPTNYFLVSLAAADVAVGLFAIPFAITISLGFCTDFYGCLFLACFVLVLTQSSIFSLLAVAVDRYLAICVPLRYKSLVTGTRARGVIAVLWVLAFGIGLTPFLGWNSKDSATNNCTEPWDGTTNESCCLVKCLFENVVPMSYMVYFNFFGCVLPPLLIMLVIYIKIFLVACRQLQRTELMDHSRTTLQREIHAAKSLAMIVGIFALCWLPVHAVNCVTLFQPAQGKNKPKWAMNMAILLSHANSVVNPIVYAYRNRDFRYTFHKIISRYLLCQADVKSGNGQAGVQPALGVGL
Method: (§1) SPA ^35S-GTPγS experiments were conducted with Epics Therapeutics membrane preparations. cAMP HTRF assays were conducted with recombinant cell lines.
Dose response curves are performed in parallel with the reference compounds.
For agonist test (96 well): 12 μL of cells are mixed with 12 μL of the test compound at increasing concentrations and then incubated 30 min at room temperature. After addition of the lysis buffer containing cAMP-d2 and anti-cAMP cryptate detection reagents, plates are incubated 1 hour incubation at room temperature, and fluorescence ratios are measured according to the manufacturer specification, with the HTRF kit.

[1] = biological target: T2, human Adenosine A1 receptor (Homo sapiens, UniProt P30542); assay: GTPγS scintillation proximity assay, agonist testing; format: biochemical; conditions: agonist activity; membrane extracts of CHO-K1 cells expressing recombinant human A1; read-out: A1AR EC50
T2 construct: host or cells: CHO-K1
T2 sequence (P30542 1-326): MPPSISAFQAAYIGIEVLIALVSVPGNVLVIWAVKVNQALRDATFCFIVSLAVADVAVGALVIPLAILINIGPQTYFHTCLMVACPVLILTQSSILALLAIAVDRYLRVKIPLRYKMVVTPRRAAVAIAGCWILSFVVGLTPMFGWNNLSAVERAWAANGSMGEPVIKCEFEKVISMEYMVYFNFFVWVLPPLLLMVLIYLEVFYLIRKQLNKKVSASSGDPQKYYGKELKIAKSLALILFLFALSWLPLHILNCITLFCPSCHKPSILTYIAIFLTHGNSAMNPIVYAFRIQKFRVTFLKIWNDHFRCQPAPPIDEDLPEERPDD
Method: as §1
• Assay buffer: 20 mM HEPES pH 7.4; 100 mM NaCl, 10 μg/mL saponin, MgCl2 at optimized concentration for the specific receptor. • Membranes: membrane extracts prepared from CHO-K1 cells expressing recombinant human Adenosine A1 receptor, thawed on ice, diluted in assay buffer and kept on ice. • GDP: diluted in assay buffer at the optimized concentration for the specific receptor Beads: PVT-WGA (Perkin Elmer, RPNQ001), diluted in assay buffer at 50 mg/mL (0.5 mg/10 μL) • GTPγ^35S: (Perkin Elmer, NEG030X), diluted in assay buffer for a final 0.1 nM assay concentration
Protocol for agonist testing: membranes are mixed with GDP (volume:volume). In parallel, GTPγ[^35S] is mixed with the beads (volume:volume) just before starting the reaction. The following reagents are successively added in the wells of an Optiplate (Perkin Elmer): 50 μL of test or reference ligand, 25 μL of the membranes:GDP mix, and 25 μL of the GTPγ[^35S]:beads mix. The plates are covered with a top seal, mixed on an orbital shaker for 2 min, and then incubated for 1 hour at room temperature. Then the plates are centrifuged for 10 min at 2000 rpm, incubated at room temperature and counted for 30 sec/well with a PerkinElmer TopCount™ reader. • Conditions for the GTPγS scintillation proximity assay are shown in Table 14.

Row | EC50 (human A2B) [nM] | EC50 [1] [nM] | Compound
1 | 255 | > 10000 | CNCCSc1nc(N)c(C#N)c(-c2ccc(OCCO)cc2)c1C#N [Compound 128]
2 | > 10000 | 13.9 | COCCOc1ccc(-c2c(C#N)c(SCc3cccnc3)nc(N3CC(O)C3)c2C#N)cc1 [Compound 278]
3 | 4.5 | 87 | CNC(=O)CSc1nc(N)c(C#N)c(-c2ccc(OCCO)cc2)c1C#N [Compound 139]
4 | > 10000 | 276 | COCCOc1ccc(-c2c(C#N)c(N)nc(S[C@H](C)c3cccnc3)c2C#N)cc1 [Compound 248]
5 | 1.9 | 309 | N#Cc1c(N)nc(SCc2cccnc2)c(C#N)c1-c1ccc(OCC(O)C(F)(F)F)cc1 (centres unmarked) [Compound 65]
6 | 7.1 | 34 | N#Cc1c(N)nc(SCc2ncccn2)c(C#N)c1-c1ccc(OCCO)cc1 [Compound 176]
7 | 305 | 10.8 | CC(O)COc1ccc(-c2c(C#N)c(N)nc(SCC3COC3)c2C#N)cc1 (centres unmarked) [Compound 316]
8 | > 10000 | 1.19 | COCCOc1ccc(-c2c(C#N)c(N)nc(S[C@@H](C)c3cccnc3)c2C#N)cc1 [Compound 247]
9 | > 10000 | 71 | COCCOc1ccc(-c2c(C#N)c(N)nc(SCc3ccnnc3)c2C#N)cc1 [Compound 194]
10 | > 10000 | 52 | COCCOc1ccc(-c2c(C#N)c(N)nc(SCc3ccncc3)c2C#N)cc1 [Compound 197]
11 | > 10000 | 49 | COCCOc1ccc(-c2c(C#N)c(N)nc(OCc3cccnc3)c2C#N)cc1 [Compound 193]
12 | 18 | 7.6 | N#Cc1c(SCc2cccnc2)nc(N2CCCC2)c(C#N)c1-c1ccc(OCCO)cc1 [Compound 114]
13 | 56.7 | 1.16 | N#Cc1c(SCc2cccnc2)nc(N2CC(O)C2)c(C#N)c1-c1ccc(OC2COC2)cc1 [Compound 268]
14 | 0.5 | 8.1 | N#Cc1c(N)nc(SCc2ccncc2)c(C#N)c1-c1ccc(OCCO)cc1 [Compound 174]
15 | > 10000 | > 10000 | COCCOc1ccc(-c2c(C#N)c(N)nc(SCc3cccc4[nH]ncc34)c2C#N)cc1 [Compound 214]
16 | 26.3 | 201 | Cc1ccc(CSc2nc(N3CCC3)c(C#N)c(-c3ccc(OCCO)cc3)c2C#N)cn1 [Compound 69]
17 | > 10000 | > 10000 | COCCOc1ccc(-c2c(C#N)c(N)nc(SCc3cccc4[nH]cnc34)c2C#N)cc1 [Compound 215]
18 | > 10000 | 7500 | CNCCSc1nc(N)c(C#N)c(-c2ccc(OCCOC)cc2)c1C#N [Compound 140]
19 | 159 | 368 | N#Cc1c(N)nc(NCc2cccnc2)c(C#N)c1-c1ccc(OCCO)cc1 [Compound 161]
20 | 87 | 768 | COCCOc1ccc(-c2c(C#N)c(N)nc(SCC(N)=O)c2C#N)cc1 [Compound 136]
21 | 0.1 | 2 | N#Cc1c(N)nc(SCc2cccnc2)c(C#N)c1-c1ccc(OCCO)cc1 [Compound 183]
22 | 495 | 981 | N#Cc1c(N)nc(SCc2c[nH]c3ccccc23)c(C#N)c1-c1ccc(OCCO)cc1 [Compound 206]
23 | 81.7 | 29.2 | N#Cc1c(N)nc(SCc2ccnc3[nH]ccc23)c(C#N)c1-c1ccc(OCCO)cc1 [Compound 14]
24 | 5.1 | 38 | CC(C)(O)COc1ccc(-c2c(C#N)c(N)nc(SCc3cccnc3)c2C#N)cc1 [Compound 51]
25 | 0.08 | 8.6 | CC(O)COc1ccc(-c2c(C#N)c(N)nc(SCc3cccnc3)c2C#N)cc1 (centres unmarked) [Compound 56, 2-Amino-4-[4-(2-hydroxy-propoxy)phenyl]-6-(3-pyridylmethylsulfanyl)pyridine-3,5-dicarbonitrile]
26 | 6450 | > 10000 | COCCOc1ccc(-c2c(C#N)c(N)nc(S[C@H](C)c3ccccn3)c2C#N)cc1 [Compound 243]
27 | 2.02 | 1.22 | N#Cc1c(N)nc(SCc2cccnn2)c(C#N)c1-c1ccc(OC2COC2)cc1 [Compound 234]
28 | 20 | 61.5 | COc1nc(SCc2cccnc2)c(C#N)c(-c2ccc(OCCO)cc2)c1C#N [Compound 282]

The remaining lines, values behind:

Row | Compound | EC50 (human A2B) [nM] | EC50 [1] [nM]
29 | N#Cc1c(N)nc(SCc2cccc3[nH]ccc23)c(C#N)c1-c1ccc(OC2CCOC2)cc1 (centres unmarked) [Compound 221] | > 10000 | > 10000
30 | N#Cc1c(N)nc(SCc2cccc3[nH]ccc23)c(C#N)c1-c1ccc(OC2COC2)cc1 [Compound 22, 2-Amino-6-(1H-indol-4-ylmethylsulfanyl)-4-[4-(oxetan-3-yloxy)phenyl]pyridine-3,5-dicarbonitrile] | > 10000 | 3.5
31 | COCCOc1ccc(-c2c(C#N)c(C)nc(N)c2C#N)cc1 [Compound 39, 2-Amino-4-[4-(2-methoxyethoxy)phenyl]-6-methyl-pyridine-3,5-dicarbonitrile] | > 10000 | 862
32 | CC1(CSc2nc(N)c(C#N)c(-c3ccc(OC4COC4)cc3)c2C#N)COC1 [Compound 327] | > 10000 | 22.1
33 | COCCOc1ccc(-c2c(C#N)c(SCc3cccnn3)nc(N3CC(F)C3)c2C#N)cc1 [Compound 238] | > 10000 | > 10000
34 | N#Cc1c(N)nc(OC[C@H]2CCOC2)c(C#N)c1-c1ccc(OC2COC2)cc1 [Compound 290] | > 10000 | 265
35 | N#Cc1c(N)nc(SC2CCOCC2)c(C#N)c1-c1ccc(OC2COC2)cc1 [Compound 31] | > 10000 | 596
36 | COCCOc1ccc(-c2c(C#N)c(SCc3cccnn3)nc(C3CC3)c2C#N)cc1 [Compound 233] | > 10000 | > 10000
37 | N#Cc1c(N)nc(SCC2OCCCO2)c(C#N)c1-c1ccc(OC2COC2)cc1 [Compound 291] | 9890 | 208
38 | N#Cc1c(N)nc(SCC2CCOCC2)c(C#N)c1-c1ccc(OC2COC2)cc1 [Compound 305] | 1120 | 140
39 | N#Cc1c(N)nc(SCC2COC2)c(C#N)c1-c1ccc(OC2COC2)cc1 [Compound 25] | > 10000 | 1.1
40 | N#Cc1c(N)nc(SCCC(F)(F)F)c(C#N)c1-c1ccc(OC2CCOC2)cc1 (centres unmarked) [Compound 220] | > 10000 | > 10000
41 | N#Cc1c(N)nc(SCC2COC2)c(C#N)c1-c1ccc(OC2CCOC2)cc1 (centres unmarked) [Compound 219] | > 10000 | 154
42 | N#Cc1c(N)nc(OCCC2COC2)c(C#N)c1-c1ccc(OC2COC2)cc1 [Compound 307] | > 10000 | > 10000
43 | N#Cc1c(SCc2cccnn2)nc(N2CC(F)C2)c(C#N)c1-c1ccc(OCCOC(F)F)cc1 [Compound 241] | > 10000 | 73.2
44 | CN(C)c1nc(SCC2COC2)c(C#N)c(-c2ccc(OC3COC3)cc2)c1C#N [Compound 222] | > 10000 | 32
45 | N#Cc1c(N)nc(SCC2CCOC2)c(C#N)c1-c1ccc(OCCO)cc1 (centres unmarked) [Compound 28] | > 10000 | 52.4
46 | N#Cc1c(N)nc(SCC2COC2)c(C#N)c1-c1ccc(OC(F)(F)CO)cc1 [Compound 311, 2-Amino-4-[4-(1,1-difluoro-2-hydroxy-ethoxy)phenyl]-6-(oxetan-3-ylmethylsulfanyl)pyridine-3,5-dicarbonitrile] | > 10000 | 7.18
47 | N#Cc1c(N)nc(SCC2CCOC2)c(C#N)c1-c1ccc(OC2CC(O)C2)cc1 (centres unmarked) [Compound 324] | > 10000 | 21.3
48 | Cc1nc(SCCC(F)(F)F)c(C#N)c(-c2ccc(OCCO)cc2)c1C#N [Compound 48] | 42.6 | > 10000
49 | CCOCCSc1nc(N)c(C#N)c(-c2ccc(OCCOC)cc2)c1C#N [Compound 34] | > 10000 | 245
